Measurements as given in patent publication US12310948B2, “Application of monocyclic β-lactam compound in pharmacy” (SHENZHEN OPTIMUM BIOLOGICAL TECHNOLOGY CO., LTD, priority 2018, dated 2025).
Marks after values point to notes of the source that are not given here.

Legend:
[1] = system: Pseudomonas aeruginosa PA14; assay: Pulmonary Pseudomonas aeruginosa infection in immunosuppressive mice: lung bacterial load; assay type: in vivo; details: for LOG10 of Bacterial load: lung tissue 24 h after infection, immunosuppressed CD-1 mice, ip at 2 h, 4 h, 6 h, 8 h
Experimental: Pseudomonas aeruginosa PA14.
(§1) 46 female CD-1 (ICR) mice, supplied by Beijing Vital River Laboratory Animal Technology Co., Ltd., body weight of 23-27 g, 7 weeks old.
46 immunosuppressive mice were formed by intraperitoneal injection of cyclophosphamide 150 mg/kg on day 1 and day 4.
Seven groups were set up, including high, medium and low dose groups of compound represented by formula (I), high and medium-dose groups of compound I-g, aztreonam group and model group; there were 6 animals in each group, the other 4 animals were subjected to pulmonary infection for 2 h, and the lung tissues were removed to count the bacterial load. See the table below for specific grouping.
Mice were injected intratracheally with 50 μL of bacterial fluid (2×10^3 CFU). Four model mice were sacrificed 2 h after infection.
2 h after infection, the mice were injected intraperitoneally once at 2 h, 4 h, 6 h and 8 h according to the groups, for a total of 4 times.
24 h after infection, the mice in each group were sacrificed by cervical dislocation, and the lung and kidney tissues were removed aseptically, then placed into sterilized homogenate tube, weighed, added with proper amount of normal saline (NS), and homogenized by a homogenizer for 1 min; the lung tissues in model group were diluted 10^4, 10^5, and 10^6-fold, the lung tissues in each administration group were diluted 10 and 100-fold, the kidney tissues in model group were diluted 10^2, 10^3, and 10^4-fold, and the lung tissues in each administration group were diluted 10-fold; the serial diluents were plated onto TSA plates with a spiral coater, and incubated overnight at 37° C. to determine CFU counts with a colony counter.
(§2) CFU scatter plots of lung tissue were made using Graphpad Prism mapping software. The average CFU and body weight were calculated by SPSS 19.0 software, and the differences between groups were analyzed by variance analysis.
Mice were injected intraperitoneally with compounds of formula (I), compound I-g and aztreonam at 2 h, 4 h, 6 h and 8 h after infection; animals were sacrificed at 24 h, lung tissues were removed aseptically, immersed in normal saline (NS), homogenized, diluted appropriately, and then 50 μL of diluents were evenly plated onto TSA plates; the plates were incubated overnight in a 37° C. incubator to count the number of colonies, which was converted to CFU per milliliter by a dilution ratio, and logarithmic value of the bacterial load was calculated of base 10, and the mean and standard deviation were compared in each group.

[2] = Animal body weight in the in vivo protection test (pulmonary infection in mice); details: for Weight on day 1 / Weight on day 4 / Weight on day 5: ip
Experimental: as §1
The mice were weighed each day after the start of the test and body weight changes were recorded.
as §2

SMILES: CC1(C)[C@H](NC(=O)/C(=N\O[C@@H](COc2ccc(C(=N)N[C@@H]3CCCNC3)cc2)C(=O)O)c2csc(N)n2)C(=O)N1OS(=O)(=O)O [I-g, reference compound]
- LOG10 of Bacterial load ([1]; total dose 120 mg/kg day): 1.58 ± 2.45
- LOG10 of Bacterial load ([1]; total dose 200 mg/kg day): 0**
- Weight on day 1 ([2]; 120 mg/kg day group): 27.02 ± 1.12 g
- Weight on day 4 ([2]; 120 mg/kg day group): 28.21 ± 1.16 g
- Weight on day 5 ([2]; 120 mg/kg day group): 27.20 ± 0.96 g
- Weight on day 1 ([2]; 200 mg/kg day group): 27.25 ± 1.14 g
- Weight on day 4 ([2]; 200 mg/kg day group): 28.39 ± 1.60 g
- Weight on day 5 ([2]; 200 mg/kg day group): 26.43 ± 1.06 g

SMILES: CC1(C)[C@H](NC(=O)/C(=N\O[C@@H](COc2ccc3c(c2)CN(C(=N)N(CCCN)CCCN)C3)C(=O)O)c2csc(N)n2)C(=O)N1OS(=O)(=O)O [Compound represented by formula (I)]
- Elimination of the bacteria infected on the lung (in words) ([1]; at the lowest dose): completely eliminated
- Elimination of bacterial load in lung tissue (in words) ([1]; high, middle and low-dose groups, 24 h after infection): completely eliminated
- LOG10 of Bacterial load ([1]; total dose 60 mg/kg day): 0**
- LOG10 of Bacterial load ([1]; total dose 120 mg/kg day): 0**
- LOG10 of Bacterial load ([1]; total dose 200 mg/kg day): 0**
- Weight on day 1 ([2]; 60 mg/kg day group): 26.14 ± 1.21 g
- Weight on day 4 ([2]; 60 mg/kg day group): 27.76 ± 0.43 g
- Weight on day 5 ([2]; 60 mg/kg day group): 26.77 ± 1.02 g
- Weight on day 1 ([2]; 120 mg/kg day group): 26.47 ± 1.65 g
- Weight on day 4 ([2]; 120 mg/kg day group): 28.33 ± 1.14 g
- Weight on day 5 ([2]; 120 mg/kg day group): 28.01 ± 1.35 g
- Weight on day 1 ([2]; 200 mg/kg day group): 26.91 ± 1.03 g
- Weight on day 4 ([2]; 200 mg/kg day group): 28.03 ± 2.15 g
- Weight on day 5 ([2]; 200 mg/kg day group): 25.40 ± 2.75 g
- Safety conclusion from body weight (in words) ([2]; administration group): safe

SMILES: C[C@H]1[C@H](NC(=O)/C(=N\OC(C)(C)C(=O)O)c2csc(N)n2)C(=O)N1S(=O)(=O)O [Aztreonam, aztreonam, reference compound]
- LOG10 of Bacterial load ([1]; total dose 400 mg/kg day): 1.62 ± 2.22
- Weight on day 1 ([2]; 400 mg/kg day group): 27.16 ± 1.74 g
- Weight on day 4 ([2]; 400 mg/kg day group): 27.80 ± 2.37 g
- Weight on day 5 ([2]; 400 mg/kg day group): 28.02 ± 1.08 g
